Assay results reported in patent US12419296B2, “Remote detection of pre-determined termite feeding activities in soil” (University of Florida Research Foundation, Inc., priority 2019, dated 2025).

How the values were obtained:
rat [1] = details: cited from earlier work
rat [2] = assay: rat oral LD50 (acute toxicity); assay type: in vivo; details: relative to soil termiticide fipronil

| SMILES | rat oral LD50 (rat [1]) | fold less toxic than fipronil (rat oral LD50) (rat [2]) |
| --- | --- | --- |
| N#Cc1nn(-c2c(Cl)cc(C(F)(F)F)cc2Cl)c(N)c1[S+]([O-])C(F)(F)F (stereo not drawn) [fipronil] | 97 mg/kg |  |
| O=C(NC(=O)c1c(F)cccc1F)Nc1cc(Cl)c(OC(F)(F)C(F)C(F)(F)F)c(Cl)c1F (stereo not drawn) [noviflumuron] | > 3,160 mg/kg | 32 fold |
